The source of these data is PubChem BioAssay AID256 (DTP/NCI, 2004).

The subject of the experiment is CD2F1 mice, L1210 leukemia ip, survival T/C. Nature of the experiment: NCI In Vivo Anticancer Drug Screen. Data for tumor model L1210 Leukemia (intraperitoneal) in CD2F1 (CDF1) mice. The settings on record: higher = longer survival. The method in brief:
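Read-out first: treated-group measurement over vehicle-control measurement, expressed as a ratio. Animals bore a transplanted tumor line and were dosed with compound or vehicle.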

Structures are written as SMILES. “And” between values parts separate entries of the source, which are not always exact repeats. Equal values may be shown once. Toxic doses and inconclusive results are not listed.

As for `C1CC[N-]CC1.C1CC[N-]CC1.O=C(O)CC(=O)O.[Pt+2]`, the T/C by setting is: (endpoint: mean survival time, dose: 3.13 mg/kg/injection, schedule: Q04DX003 (ip), vehicle: saline with Tween-80) 100 % of control; (endpoint: mean survival time, dose: 6.25 mg/kg/injection, schedule: Q04DX003 (ip), vehicle: saline with Tween-80) 97 % of control; (endpoint: mean survival time, dose: 12.5 mg/kg/injection, schedule: Q04DX003 (ip), vehicle: saline with Tween-80) 100 % of control; (endpoint: mean survival time, dose: 25.0 mg/kg/injection, schedule: Q04DX003 (ip), vehicle: saline with Tween-80) 100 % of control; (endpoint: mean survival time, dose: 50.0 mg/kg/injection, schedule: Q04DX003 (ip), vehicle: saline with Tween-80) 97 % of control; (endpoint: mean survival time, dose: 100.0 mg/kg/injection, schedule: Q04DX003 (ip), vehicle: saline with Tween-80) 100 % of control. In addition, where the note is “endpoint: mean survival time, dose: 200.0 mg/kg/injection, schedule: Q04DX003 (ip), vehicle: saline with Tween-80”, the T/C was 96 % of control.

For the molecule `c1ccc(C[Se]Cc2ccccc2)cc1`, the T/C (endpoint: mean survival time, dose: 6.25 mg/kg/injection, schedule: Q01DX009 (ip), vehicle: other) was 102 % of control; the T/C (endpoint: mean survival time, dose: 12.5 mg/kg/injection, schedule: Q01DX009 (ip), vehicle: other) is 97 % of control; the T/C (endpoint: mean survival time, dose: 25.0 mg/kg/injection, schedule: Q01DX009 (ip), vehicle: other) was 97 % of control; the T/C (endpoint: mean survival time, dose: 25.0 mg/kg/injection, schedule: Q04DX003 (ip), vehicle: other) is 101 % of control; the T/C (endpoint: mean survival time, dose: 50.0 mg/kg/injection, schedule: Q04DX003 (ip), vehicle: other) is 87 % of control.

For `CC[C@@]1(O)C(=O)OCc2c1cc1n(c2=O)Cc2cc3cc(O)ccc3nc2-1`, the T/C is, setting by setting: (endpoint: mean survival time, dose: 2.0 mg/kg/injection, schedule: Q04DX003 (ip), vehicle: other) 155 % of control; (endpoint: mean survival time, dose: 4.0 mg/kg/injection, schedule: Q04DX003 (ip), vehicle: other) 174 % of control; (endpoint: mean survival time, dose: 16.0 mg/kg/injection, schedule: Q04DX003 (ip), vehicle: other) 107 % of control; (endpoint: median survival time, dose: 1.25 mg/kg/injection, schedule: Q04DX002 (ip), vehicle: saline) 184 % of control; (endpoint: median survival time, dose: 1.5 mg/kg/injection, schedule: Q04DX002 (ip), vehicle: saline) 166 % of control; (endpoint: median survival time, dose: 2.5 mg/kg/injection, schedule: Q04DX002 (ip), vehicle: saline) 162 % of control and 253 % of control. In addition, the T/C is 150 % of control (endpoint: median survival time, dose: 3.0 mg/kg/injection, schedule: Q04DX002 (ip), vehicle: suspension in saline); 232 % of control and 301 % of control (endpoint: median survival time, dose: 5.0 mg/kg/injection, schedule: Q04DX002 (ip), vehicle: saline); 153 % of control (endpoint: median survival time, dose: 6.0 mg/kg/injection, schedule: Q04DX002 (ip), vehicle: suspension in saline); 192 % of control and 209 % of control (endpoint: median survival time, dose: 10.0 mg/kg/injection, schedule: Q04DX002 (ip), vehicle: saline); 228 % of control (endpoint: median survival time, dose: 12.0 mg/kg/injection, schedule: Q04DX002 (ip), vehicle: suspension in saline); 184 % of control and 348 % of control (endpoint: median survival time, dose: 20.0 mg/kg/injection, schedule: Q04DX002 (ip), vehicle: saline). The T/C was 102 % of control (endpoint: median survival time, dose: 40.0 mg/kg/injection, schedule: Q04DX002 (ip), vehicle: saline) and 87 % of control (endpoint: median survival time, dose: 48.0 mg/kg/injection, schedule: Q04DX002 (ip), vehicle: suspension in saline).

As to `CC12COC(=O)C1(C)C1CCC2O1` (stereo not given), the T/C is 92 % of control (endpoint: mean survival time, dose: 1.0 mg/kg/injection, schedule: Q04DX002 (ip), vehicle: saline); 88 % of control (endpoint: mean survival time, dose: 2.0 mg/kg/injection, schedule: Q04DX002 (ip), vehicle: saline); 92 % of control (endpoint: mean survival time, dose: 4.0 mg/kg/injection, schedule: Q04DX002 (ip), vehicle: saline); 100 % of control (endpoint: mean survival time, dose: 5.0 mg/kg/injection, schedule: Q01DX002 (ip), vehicle: saline with Tween-80); 108 % of control (endpoint: mean survival time, dose: 10.0 mg/kg/injection, schedule: Q01DX002 (ip), vehicle: saline with Tween-80).

In the case of `COc1ccccc1N1C(=O)C=CC1=O`, the T/C runs as follows: (endpoint: mean survival time, dose: 5.0 mg/kg/injection, schedule: Q04DX003 (ip), vehicle: saline with Tween-80) 98 % of control; (endpoint: mean survival time, dose: 10.0 mg/kg/injection, schedule: Q04DX003 (ip), vehicle: saline with Tween-80) 100 % of control; (endpoint: mean survival time, dose: 20.0 mg/kg/injection, schedule: Q04DX003 (ip), vehicle: saline with Tween-80) 95 % of control.

As to `O=S(=O)(N(c1ccccc1)S(=O)(=O)C(F)(F)F)C(F)(F)F`, the T/C is 91 % of control (endpoint: mean survival time, dose: 50.0 mg/kg/injection, schedule: Q01DX009 (ip), vehicle: Klucel (hydroxypropylcellulose) (HPC)); 88 % of control (endpoint: mean survival time, dose: 100.0 mg/kg/injection, schedule: Q01DX009 (ip), vehicle: Klucel (hydroxypropylcellulose) (HPC)); 88 % of control (endpoint: mean survival time, dose: 200.0 mg/kg/injection, schedule: Q01DX009 (ip), vehicle: Klucel (hydroxypropylcellulose) (HPC)).

For `O=P(OCc1ccccc1)(N(CCCl)CCCl)N1CCN(P(=O)(OCc2ccccc2)N(CCCl)CCCl)CC1` (stereo not given), the T/C by setting is: (endpoint: mean survival time, dose: 128.0 mg/kg/injection, schedule: Q01DX Z (ip), vehicle: saline) 104 % of control; (endpoint: mean survival time, dose: 256.0 mg/kg/injection, schedule: Q01DX Z (ip), vehicle: saline) 107 % of control; (endpoint: mean survival time, dose: 512.0 mg/kg/injection, schedule: Q01DX Z (ip), vehicle: saline) 113 % of control.
